Test results: ChEMBL document CHEMBL3885881, “DrugMatrix”

Organism: Rattus norvegicus
Test: DrugMatrix - Regimen: Daily Repeat
Assay type: toxicity, organism-based, Sprague-Dawley
Design: regimen Daily Repeat, gender Male, age 6-8 weeks
Conditions: in vivo, po, route oral GAVAGE; for ABSOLUTE EOSINOPHIL / ABSOLUTE LYMPHOCYTE / ABSOLUTE MONOCYTE / ABSOLUTE SEGMENTED NEUTROPHIL / EOSINOPHIL / ERYTHROCYTE COUNT / HEMATOCRIT / HEMOGLOBIN / LEUKOCYTE COUNT / LYMPHOCYTE / MEAN CORPUSCULAR HEMOGLOBIN / MEAN CORPUSCULAR HEMOGLOBIN CONCENTRATION / MEAN CORPUSCULAR VOLUME / MONOCYTE / NEUTROPHIL / NUCLEATED RED BLOOD CELLS / PLATELET COUNT / ABSOLUTE BASOPHIL / BASOPHIL: tissue Blood; for ALANINE AMINOTRANSFERASE / ALBUMIN / ALKALINE PHOSPHATASE / ASPARTATE AMINOTRANSFERASE / BLOOD UREA NITROGEN / CARBON DIOXIDE / CHLORIDE / CHOLESTEROL / CREATINE PHOSPHOKINASE / CREATININE / GLUCOSE / LACTATE DEHYDROGENASE / LIPASE / PHOSPHORUS / POTASSIUM / SODIUM / TOTAL PROTEIN / URIC ACID / TOTAL BILIRUBIN: tissue Plasma
[1] = 0 mg/kg, 72 h, dose level Control, time 3 day, vehicle 100 % SALINE
[2] = 0 mg/kg, 72 h, dose level Control, time 3 day, vehicle 100 % WATER
[3] = 0 mg/kg, 120 h, dose level Control, time 5 day, vehicle 100 % SALINE
[4] = 0 mg/kg, 120 h, dose level Control, time 5 day, vehicle 100 % WATER
[5] = 300 mg/kg, 72 h, dose level M2, time 3 day, vehicle 100 % SALINE
[6] = 300 mg/kg, 120 h, dose level M2, time 5 day, vehicle 100 % SALINE

CCCc1nn(C)c2c(=O)[nH]c(-c3cc(S(=O)(=O)N4CCN(C)CC4)ccc3OCC)nc12
ABSOLUTE EOSINOPHIL [1]: 37 CELLS/uL
ABSOLUTE LYMPHOCYTE [1]: 12359.33 CELLS/uL
ABSOLUTE MONOCYTE [1]: 122.67 CELLS/uL
ABSOLUTE SEGMENTED NEUTROPHIL [1]: 847.67 CELLS/uL
EOSINOPHIL [1]: 0.33%
ERYTHROCYTE COUNT [1]: 5.75 x10E6/uL
HEMATOCRIT [1]: 36.08%
HEMOGLOBIN [1]: 14.07 G/DL
LEUKOCYTE COUNT [1]: 13.37 x10E3/uL
LYMPHOCYTE [1]: 92.5%
MEAN CORPUSCULAR HEMOGLOBIN [1]: 24.47 pg
MEAN CORPUSCULAR HEMOGLOBIN CONCENTRATION [1]: 38.98 G/DL
MEAN CORPUSCULAR VOLUME [1]: 62.78 fL
MONOCYTE [1]: 1%
NEUTROPHIL [1]: 6.17%
NUCLEATED RED BLOOD CELLS [1]: 0.17 /100WBC
PLATELET COUNT [1]: 1202.17 x10E3/uL
ABSOLUTE BASOPHIL [2]: 0 CELLS/uL
ABSOLUTE EOSINOPHIL [2]: 0 CELLS/uL
ABSOLUTE LYMPHOCYTE [2]: 7802.17 CELLS/uL
ABSOLUTE MONOCYTE [2]: 13.5 CELLS/uL
ABSOLUTE SEGMENTED NEUTROPHIL [2]: 617.67 CELLS/uL
BASOPHIL [2]: 0%
EOSINOPHIL [2]: 0%
ERYTHROCYTE COUNT [2]: 5.35 x10E6/uL
HEMATOCRIT [2]: 33.02%
HEMOGLOBIN [2]: 12.88 G/DL
LEUKOCYTE COUNT [2]: 8.43 x10E3/uL
LYMPHOCYTE [2]: 92.67%
MEAN CORPUSCULAR HEMOGLOBIN [2]: 24.12 pg
MEAN CORPUSCULAR HEMOGLOBIN CONCENTRATION [2]: 39.03 G/DL
MEAN CORPUSCULAR VOLUME [2]: 61.8 fL
MONOCYTE [2]: 0.17%
NEUTROPHIL [2]: 7.17%
NUCLEATED RED BLOOD CELLS [2]: 0 /100WBC
PLATELET COUNT [2]: 1124.83 x10E3/uL
ALANINE AMINOTRANSFERASE [1]: 50.67 u/L
ALBUMIN [1]: 4.13 G/DL
ALKALINE PHOSPHATASE [1]: 356.33 u/L
ASPARTATE AMINOTRANSFERASE [1]: 78.17 u/L
BLOOD UREA NITROGEN [1]: 14.17 mg/dL
CARBON DIOXIDE [1]: 31.33 mmol/L
CHLORIDE [1]: 98.5 MEQ/L
CHOLESTEROL [1]: 76.5 mg/dL
CREATINE PHOSPHOKINASE [1]: 248.33 u/L
CREATININE [1]: 0.2 mg/dL
GLUCOSE [1]: 144 mg/dL
LACTATE DEHYDROGENASE [1]: 107 u/L
LIPASE [1]: 9.83 u/L
PHOSPHORUS [1]: 12.8 mg/dL
POTASSIUM [1]: 6.75 MEQ/L
SODIUM [1]: 142 MEQ/L
TOTAL PROTEIN [1]: 5.98 G/DL
URIC ACID [1]: 1.42 mg/dL
ALANINE AMINOTRANSFERASE [2]: 54.17 u/L
ALBUMIN [2]: 4.07 G/DL
ALKALINE PHOSPHATASE [2]: 383.83 u/L
ASPARTATE AMINOTRANSFERASE [2]: 82.17 u/L
BLOOD UREA NITROGEN [2]: 13.67 mg/dL
CARBON DIOXIDE [2]: 31 mmol/L
CHLORIDE [2]: 100.83 MEQ/L
CHOLESTEROL [2]: 65.17 mg/dL
CREATINE PHOSPHOKINASE [2]: 228.33 u/L
CREATININE [2]: 0.12 mg/dL
GLUCOSE [2]: 148 mg/dL
LACTATE DEHYDROGENASE [2]: 97.83 u/L
LIPASE [2]: 9.17 u/L
PHOSPHORUS [2]: 9.75 mg/dL
POTASSIUM [2]: 5.85 MEQ/L
SODIUM [2]: 147.02 MEQ/L
TOTAL BILIRUBIN [2]: 0.18 mg/dL
TOTAL PROTEIN [2]: 6.1 G/DL
URIC ACID [2]: 0.5 mg/dL
ABSOLUTE LYMPHOCYTE [3]: 8681.17 CELLS/uL
ABSOLUTE MONOCYTE [3]: 79.83 CELLS/uL
ABSOLUTE SEGMENTED NEUTROPHIL [3]: 689 CELLS/uL
HEMATOCRIT [3]: 33.55%
HEMOGLOBIN [3]: 13.1 G/DL
LEUKOCYTE COUNT [3]: 9.45 x10E3/uL
LYMPHOCYTE [3]: 92.33%
MEAN CORPUSCULAR HEMOGLOBIN [3]: 23.92 pg
MEAN CORPUSCULAR HEMOGLOBIN CONCENTRATION [3]: 39.07 G/DL
MEAN CORPUSCULAR VOLUME [3]: 61.22 fL
MONOCYTE [3]: 0.67%
NEUTROPHIL [3]: 7%
PLATELET COUNT [3]: 1001.17 x10E3/uL
ABSOLUTE BASOPHIL [4]: 0 CELLS/uL
ABSOLUTE EOSINOPHIL [4]: 0 CELLS/uL
ABSOLUTE LYMPHOCYTE [4]: 10538 CELLS/uL
ABSOLUTE MONOCYTE [4]: 15.83 CELLS/uL
ABSOLUTE SEGMENTED NEUTROPHIL [4]: 762.83 CELLS/uL
BASOPHIL [4]: 0%
EOSINOPHIL [4]: 0%
ERYTHROCYTE COUNT [4]: 5.49 x10E6/uL
HEMATOCRIT [4]: 34.63%
HEMOGLOBIN [4]: 13.72 G/DL
LEUKOCYTE COUNT [4]: 11.32 x10E3/uL
LYMPHOCYTE [4]: 92.67%
MEAN CORPUSCULAR HEMOGLOBIN [4]: 24.97 pg
MEAN CORPUSCULAR HEMOGLOBIN CONCENTRATION [4]: 39.57 G/DL
MEAN CORPUSCULAR VOLUME [4]: 63.05 fL
MONOCYTE [4]: 0.17%
NEUTROPHIL [4]: 7.17%
NUCLEATED RED BLOOD CELLS [4]: 0.17 /100WBC
PLATELET COUNT [4]: 802 x10E3/uL
ALANINE AMINOTRANSFERASE [3]: 49.33 u/L
ALKALINE PHOSPHATASE [3]: 300.33 u/L
ASPARTATE AMINOTRANSFERASE [3]: 83.5 u/L
BLOOD UREA NITROGEN [3]: 16 mg/dL
CARBON DIOXIDE [3]: 29.67 mmol/L
CHLORIDE [3]: 100.5 MEQ/L
CHOLESTEROL [3]: 74.33 mg/dL
CREATINE PHOSPHOKINASE [3]: 489.67 u/L
CREATININE [3]: 0.35 mg/dL
GLUCOSE [3]: 151 mg/dL
LACTATE DEHYDROGENASE [3]: 133.67 u/L
LIPASE [3]: 11.17 u/L
PHOSPHORUS [3]: 10.88 mg/dL
POTASSIUM [3]: 5.5 MEQ/L
SODIUM [3]: 145.7 MEQ/L
TOTAL BILIRUBIN [3]: 0.2 mg/dL
URIC ACID [3]: 0.68 mg/dL
ALANINE AMINOTRANSFERASE [4]: 50.5 u/L
ALBUMIN [4]: 4.07 G/DL
ALKALINE PHOSPHATASE [4]: 336.83 u/L
ASPARTATE AMINOTRANSFERASE [4]: 81 u/L
BLOOD UREA NITROGEN [4]: 14.17 mg/dL
CARBON DIOXIDE [4]: 32 mmol/L
CHLORIDE [4]: 98.33 MEQ/L
CHOLESTEROL [4]: 69.17 mg/dL
CREATINE PHOSPHOKINASE [4]: 253.33 u/L
CREATININE [4]: 0.13 mg/dL
GLUCOSE [4]: 153.67 mg/dL
LACTATE DEHYDROGENASE [4]: 157 u/L
LIPASE [4]: 9 u/L
PHOSPHORUS [4]: 10.78 mg/dL
POTASSIUM [4]: 6.11 MEQ/L
SODIUM [4]: 144.57 MEQ/L
TOTAL BILIRUBIN [4]: 0.15 mg/dL
TOTAL PROTEIN [4]: 6.05 G/DL
URIC ACID [4]: 0.73 mg/dL
ABSOLUTE BASOPHIL [5]: 0 CELLS/uL
ABSOLUTE EOSINOPHIL [5]: 110.67 CELLS/uL
ABSOLUTE LYMPHOCYTE [5]: 12663.33 CELLS/uL
ABSOLUTE MONOCYTE [5]: 138 CELLS/uL
ABSOLUTE SEGMENTED NEUTROPHIL [5]: 821.33 CELLS/uL
BASOPHIL [5]: 0%
EOSINOPHIL [5]: 0.67%
ERYTHROCYTE COUNT [5]: 5.21 x10E6/uL
HEMATOCRIT [5]: 34.03%
HEMOGLOBIN [5]: 13.07 G/DL
LEUKOCYTE COUNT [5]: 13.73 x10E3/uL
LYMPHOCYTE [5]: 92.67%
MEAN CORPUSCULAR HEMOGLOBIN [5]: 25.03 pg
MEAN CORPUSCULAR HEMOGLOBIN CONCENTRATION [5]: 38.43 G/DL
MEAN CORPUSCULAR VOLUME [5]: 65.3 fL
MONOCYTE [5]: 0.67%
NEUTROPHIL [5]: 6%
NUCLEATED RED BLOOD CELLS [5]: 0.33 /100WBC
PLATELET COUNT [5]: 1148.67 x10E3/uL
ALANINE AMINOTRANSFERASE [5]: 45.67 u/L
ALBUMIN [5]: 3.8 G/DL
ALKALINE PHOSPHATASE [5]: 335 u/L
ASPARTATE AMINOTRANSFERASE [5]: 71.67 u/L
BLOOD UREA NITROGEN [5]: 13.33 mg/dL
CARBON DIOXIDE [5]: 27.67 mmol/L
CHLORIDE [5]: 100 MEQ/L
CHOLESTEROL [5]: 70.67 mg/dL
CREATINE PHOSPHOKINASE [5]: 284 u/L
CREATININE [5]: 0.2 mg/dL
GLUCOSE [5]: 154 mg/dL
LACTATE DEHYDROGENASE [5]: 142.33 u/L
LIPASE [5]: 12.33 u/L
PHOSPHORUS [5]: 11.37 mg/dL
POTASSIUM [5]: 5.84 MEQ/L
SODIUM [5]: 144.75 MEQ/L
TOTAL BILIRUBIN [5]: 0.13 mg/dL
TOTAL PROTEIN [5]: 5.13 G/DL
URIC ACID [5]: 0.97 mg/dL
ABSOLUTE BASOPHIL [6]: 0 CELLS/uL
ABSOLUTE EOSINOPHIL [6]: 0 CELLS/uL
ABSOLUTE LYMPHOCYTE [6]: 10278 CELLS/uL
ABSOLUTE MONOCYTE [6]: 0 CELLS/uL
ABSOLUTE SEGMENTED NEUTROPHIL [6]: 955.33 CELLS/uL
